Experimental data taken from patent publication US20050090471A1, “Inhibitors of cyclin-dependent kinases, compositions and uses related thereto” (GPC Biotech, Inc, priority 2001, published 2005).
Values belong to the compound of their own block, whether it stands above or below them.

Columns and labels:
HCT-116 = test: Calcein AM viability assay, HCT-116; assay type: cell-based, human; conditions: 72-hours incubation, plus 1 mg/ml alpha acidic glycoprotein and 45 mg/ml human serum albumin, read-out: HCT-116 IC50 protein adjusted
Method: (§1) The potency of Cdk inhibitors, as measured by loss of cellular viability, was determined with the Calcein AM assay (Molecular Probes). Calcein AM is a substrate of intracellular esterases, which is cleaved only in viable cells to generate a fluorescent product that can be quantified with a fluorescent plate reader. The fluorescent signal is proportional to the number of viable cells, and thus loss of signal in response to the exposure of cells to Cdk inhibitors correlates with a loss of viability. This assay distinguishes cell cycle arrest from loss of viability and is thus well suited for the evaluation of Cdk inhibitors.
(§2) Cellular IC50's were determined in the human colorectal carcinoma cell line, HCT-116, and the normal human fibroblast, IMR90. Protein adjusted IC50's were also determined in HCT-116. Results are presented in Table 3 below (HCT-116 (viability/protein adjusted) and IMR-90).
(§3) HCT-116 or IMR90 cells were recovered from sub-confluent plates by trypsinization and 1,000 or 4,000 cells, respectively, were plated in 24-well dishes and incubated overnight at 37° C., 5% CO2. HCT-116 cells were cultured in RPMI-1640, 10% FCS, and IMR90 cells were cultured in Minimum Essential Medium-alpha, 10% FCS. After overnight incubation to allow.adlierence, the media was aspirated from each well and replaced with media containing a test compound at a concentration from 0 to 250 nM, spanning a total of 7 doses. The plates were returned to the incubator and cultured for an additional 3 days. […] After 72-hours incubation with the test compound, the cells were washed twice with 1×PBS, talking special care to remove all residual buffer.
(§4) A 5 μM Calcein AM. solution was prepared by dissolving a 50 μg aliquot of Calcein (Molecular Probes catalog # C3100) in 50 μl DMSO. After the Calcein had completely dissolved (10 minutes at room temperature), it was diluted into 10 ml PBS. Calcein/PBS (0.5 ml) was added to each well. The plates were incubated for 75 minutes at 37° C. (protected from light) and the fluorescent signal was read on a fluorescent plate reader (excitation 485/20 and emission 530/25).

IMR90 = test: Calcein AM viability assay, IMR90; assay type: cell-based; conditions: IMR-90, normal human fibroblast, 72-hours incubation
Method: as §1, §2, §3, §4

ADR-res = test: NCI panel (SRB assay), ADR-res cell line; assay type: cell-based, human; conditions: 48 hours incubation with compound, unit not given
Text: The evaluation of compounds at the National Cancer Institute in their panel of 60 cell lines provides a wealth of information regarding efficacy in a wide range of tumor types and genetic backgrounds. Included within this panel are cell lines derived from leukemia, melanoma and cancers of the lung, colon, brain, ovary, breast, prostate and kidney. Use of this panel provides a measure of the efficacy of compounds in cells with alterations in many genes that are associated with neoplastic transformation including p53 and Her2/Neu as well as those involved in metabolism and those which confer multi-drug resistance. The data generated in these cell lines with the protocol described below can be used to evaluate the activity of compounds.
Cells were grown in RPMI-1640 10% FCS and plated in 96 well micro-titer plates at densities ranging from 5,000 to 40,000 cells/well. The plates were incubated for 24 hours at 37° C., 5% CO2 for 24 hours. Media containing twice the desired final concentration of the compound (5 doses spanning 4 logs) was prepared and 100 μl was added to each well containing 100 μl media plus cells to yield the desired final concentration. The plates were then incubated for an additional 48 hours.
The effect of the compound on cellular viability was determined with the Sulforhodamine B (SRB) assay which measures total protein. Cells were fixed with cold TCA to a fmal concentration of 10% and incubated at 4° C. for 60 minutes. The supernatant was discarded and the plates were washed five times with water and air-dried. SRB solution at […] in 1% acetic acid was added to each well and the plates were incubated for 10 minutes at room temperature. The plates were washed five times with 1% acetic acid and air-dried. The bound stain was solubilized with 10 mM trizma base and the absorbance was read on a plate reader at […].

arrested HCT-116 cells = test: Arrested cell assay (serum starvation), HCT-116; assay type: cell-based, human; set-up: unit not given here; conditions: serum-starved arrested cells; unit not given
Method: Cyclin-dependent kinase (Cdk) activity is required to promote the progression of cells through distinct phases of the cell division cycle. The proliferation of normal, non-transformed, cells in culture requires the presence of growth factors, the removal of which, through serum deprivation, leads to a loss of Cdlc activity and consequent exit from the cell cycle as cells enter the quiescent phase, Go.
HCT-116 cells were plated in triplicate for each compound concentration to be tested in RPMI 1640 media containing 10% fetal calf serum at a density of either 200 or 2,000 cells per well in 24 well dishes, and incubated overnight at 37° C., 5% CO2. The media from the plate containing 2,000 cells per well was removed, cells were washed once with serum free media and 1 ml of serum free media was placed on cells. Tle plates containing cells both in the presence and absence of serum were incubated for 6 additional days.
To ensure that the cells had indeed exited the cell cyde upon serum withdrawal, the percentage of BrdU positive cells, indicative of those progressing through S phase, was determined in each experiment. For the purpose of this experiment, cellular viability was evaluated simultaneously with the use of SNARF-1, a fluorescent substrate of intracellular esterases which are only active in viable cells. Together, the evaluation of BrdU incorporation and SNARF-1 cleavage by flow cytometry provided an assessment of the viability of arrested cells on a single cell basis. For this analysis, the cells were stained with SNARF-1 as follows and then prepared for determination of BrdU incorporation as described above.
HCT-116 and IMR90 cells were plated at the density described below in T25 flasks in serum-containing media (RPMI-1640 or MEM-a with 10% FCS, respectively). After 24 hours of growth, the media was removed and, after washing the cells, replaced with serum-free media. • HCT-116+FCS 5,000 cells • HCT-116−FCS 100,000 cells • IMR90+FCS 100,000 cells • IMR90−FCS 200,000 cells
The IMR90 cells were grown for an additional 3 days and the HCT-116 cells were grown for an additional 6 days before pulsing with BrdU. A 50 μg aliquot of SNARF-1 (Molecular Probes catalog #C1272) was dissolved in 50 μl DMSO at room temperature for 10 minutes and then diluted into 10 ml PBS. The SNARF-1 was further diluted 1:64,000 before 200 μl was added to each tube of cells which had been cultured in the presence or absence of serum and pulsed with BrdU for 20 hours. The cells were incubated at 37° C. for 30 minutes and then washed with 3 ml of PBS.
These cells were then fixed and prepared for the measurement of BrdU incorporation as described above. The percentage of viable (FL-2) and BrdU positive (FL-1) cells was determined on a FACScan flow cytometer.

IC50 (HCT-116): < 1000 nM
Compound: CC(C)N1CCN(CCOc2ccc(-c3[nH]nc4c3C(=O)c3c(NC(=O)NN5CCOCC5)cccc3-4)cc2)CC1.Cl.Cl.Cl [E]
IC50 (IMR90): < 100 nM
NCI panel ADR-res (ADR-res): <1
Arrested cell HCT (arrested HCT-116 cells): <0.1

IC50 (HCT-116): < 1000 nM
Compound: CC(C)N1CCN(Cc2cc(-c3[nH]nc4c3C(=O)c3c(NC(=O)NN5CCOCC5)cccc3-4)ccc2O)CC1.Cl.Cl.Cl.Cl [K]
IC50 (IMR90): > 100 nM
NCI panel ADR-res (ADR-res): <10
Arrested cell HCT (arrested HCT-116 cells): <0.01

IC50 (HCT-116): < 1000 nM
Compound: CCCN(CCOc1ccc(-c2[nH]nc3c2C(=O)c2c(NC(=O)NN4CCOCC4)cccc2-3)cc1)CC1CC1.Cl.Cl.Cl [G]
IC50 (IMR90): < 100 nM
NCI panel ADR-res (ADR-res): <1
Arrested cell HCT (arrested HCT-116 cells): <0.1

IC50 (HCT-116): < 1000 nM
Compound: CN1CCN(NC(=O)Nc2cccc3c2C(=O)c2c-3n[nH]c2-c2ccc(OCCN3CCOCC3)cc2)CC1.Cl.Cl [Q]
IC50 (IMR90): < 100 nM
NCI panel ADR-res (ADR-res): <10
Arrested cell HCT (arrested HCT-116 cells): <0.1

Continued, compound first:

Compound: CC(C)c1nn(-c2c(Cl)cccc2Cl)c2nc(Cc3ccc(O)c(CN4CCN(C(C)C)CC4)c3)[nH]c(=O)c12.Cl.Cl [Compound C]
IC50 (IMR90): < 100 nM
NCI panel ADR-res (ADR-res): <0.1
Arrested cell HCT (arrested HCT-116 cells): <0.01

Compound: Cl.Cl.Cl.O=C(Nc1cccc2c1C(=O)c1c-2n[nH]c1-c1ccc(OCCN2CCCC2)cc1)NN1CCOCC1 [Compound I]
IC50 (HCT-116): < 1000 nM
IC50 (IMR90): < 100 nM
NCI panel ADR-res (ADR-res): <1
Arrested cell HCT (arrested HCT-116 cells): <0.1

Compound: Cl.Cl.Cl.O=C(Nc1cccc2c1C(=O)c1c-2n[nH]c1-c1ccc(OCCN(CCO)CCO)cc1)NN1CCOCC1 [H]
IC50 (IMR90): < 100 nM
NCI panel ADR-res (ADR-res): >10
Arrested cell HCT (arrested HCT-116 cells): <0.1

Compound: CN1CCN(NC(=O)Nc2cccc3c2C(=O)c2c-3n[nH]c2-c2ccc(OCCN3CCCC3)cc2)CC1.Cl.Cl.Cl [F]
IC50 (IMR90): < 100 nM
NCI panel ADR-res (ADR-res): <1
Arrested cell HCT (arrested HCT-116 cells): <0.1
